Measured values as given in US20080317805A1, “LOCALLY ADMINISTRATED LOW DOSES OF CORTICOSTEROIDS” (priority 2007, published 2008).
“Also recorded” adds a separate entry of the source.

Experiments:
[1] = test system: rat chronic constriction injury (CCI) model; assay: Thermal paw withdrawal latency, local pump delivery, rat CCI model; assay type: in vivo; details: 0.0032, 0.016, and 0.08 ng/hour by osmotic mini-pump, perineural; p<0.05
Description: (§1) Thermal hyperalgesia is measured using a plantar analgesia instrument (Stoelting, Wood Dale, Ill.). Prior to testing, each animal is placed on the plantar test apparatus, a clear plastic chamber, and is allowed to rest/acclimate for 15 minutes. A radiant (heat) beam stimulus is applied to the CCI paw of each animal. After paw withdrawal, an automated control interrupts both the stimulus and the timer. The heat source device is set at intensity 50, and a maximal cut-off at 15 seconds is set to prevent tissue damage. Thermal hyperalgesia paw withdrawal latency response of the injured site (right hind paw) of each animal is measured 2 days prior to CCI surgery (pre-injury baseline) on Days 7, 14, and 21 after surgery. Data from each test is analyzed by one-way ANOVA.
Following the above experiments, the efficacy of locally administered, low dose of fluocinolone acetonide (Sigma Cat# F8880-25MG; Lot# 043K1167, Sigma Aldrich) and dexamethasone (Sigma Aldrich) is examined in the same CCI rat model. […]
Fluocinolone is administered at doses of 0.0032 ng/hour (0.02304 ng/kg/day), 0.016 ng/hour (0.1152 ng/kg/day), and 0.08 ng/hour (0.576 ng/kg/day). […] Thermal hyperalgesia, induced and measured as described above, is measured on Days −2, 7, 14, and 21. Mechanical allodynia, induced and measured as described above, is measured on Days −1, 8, 15, and 22.

[2] = test system: rat chronic constriction injury (CCI) model; assay: Mechanical allodynia (von Frey 50% paw withdrawal threshold), systemically administered fluocinolone, rat CCI model; assay type: in vivo
Description: (§2) The purpose of this study is to evaluate the efficacy of fluocinolone acetonide (Sigma Cat# F8880-25MG; Sigma Aldrich, St. Louis, Mo.), a potent corticosteroid, to reduce neuropathic pain in an animal model. This animal model involves pain-associated behaviors in male Wistar rats (300-326 g) following chronic constriction injury (CCI) induced by a procedure similar to that described by Bennett and Xie (1988). Under 2% isoflurane anesthesia, the rat's common sciatic nerve is exposed and freed from adherent tissue at mid-thigh by separating the muscle (biceps femoris) by blunt dissection. Four loose ligatures are placed 1 mm apart, using chromic gut (4-0 absorbable suture, Jorgensen Laboratories, Inc. Loveland, Colo.).
(§3) After CCI induction, each group (n=7) receive treatment via systemic injection. Vehicle control animals (Group 1) receive 1× phosphate buffered solution (PBS) intraperitoneally (IP) every three days, beginning the day of surgery (Day 0), etanercept (Group 2; 3 mg/kg) is administered IP every 3 days beginning Day 0. Animals in treatment Groups 3, 4 and 5 receive fluocinolone (0.5, 5, or 25 μg/kg) subcutaneously (SC) every day beginning Day 0.
(§4) Mechanical allodynia is measured using von Frey monofilament test (Stoelting, Wood Dale, Ill.). The plantar surface of the CCI paw of each animal is tested as described by Chaplan et al. (1994). Each animal is placed in a suspended clear plastic chamber with a wire mesh bottom. Prior to testing, each animal is acclimated for 15 minutes. The 50% paw withdrawal threshold response is determined by sequentially increasing or decreasing the stimulus strength according to the “up-down method” of Dixon (1980).
Testing begins with a filament with a buckling weight of 2.0 g and continued through a series of filaments applied in sequence, up to about 15 g. Each filament is applied with enough pressure to cause a buckle effect. The absence of a paw lifting/withdrawal response after 5 seconds prompts the use of the filament to the next higher weight. Paw withdrawal, indicates a positive response. The testing continues for four additional measurements and is used to calculate the response threshold. Four consecutive positive responses receive a score of 0.25 g, and five consecutive negative responses (i.e., no paw withdrawal) receives a score of 15 g. The mechanical paw withdrawal threshold of each animal is measured one day prior to surgery (per-surgical baseline) and on Days 8, 15, and 22.
(§5) The 50% paw withdrawal threshold is calculated (PWT; Luo and Calcutt, 2002, Chaplan et al. 1994) using the formula 10 (Xf+?d)/10,000, where Xf is the final von Frey filament used (log units), ? is a value that analyzes the response pattern (taken from the table published by Chaplan at al., 1994), and d is the mean difference between stimuli (log units). Data is analyzed using one-way ANOVA on each test.

[3] = Body weight gain during daily SC fluocinolone in CCI rats; assay type: in vivo, rat; details: for body weight difference to vehicle controls: 25 μg/kg SC daily
Description: as §2, §3

[4] = test system: rat chronic constriction injury (CCI) model; assay: Von Frey mechanical threshold, local pump delivery, rat CCI model; assay type: in vivo; details: 0.0032, 0.016, 0.08 ng/hour by pump, each day tested; not statistically significant
Description: as §4
Testing begins with a filament with a buckling weight of 2.0 g and continued through a series of filaments applied in sequence, up to about 15 g. Each filament is applied with enough pressure to cause a buckle effect. The absence of a paw lifting/withdrawal response after 5 seconds prompts the use of the filament to the next higher weight. […] The mechanical paw withdrawal threshold of each animal is measured one day prior to surgery (per-surgical baseline) and on Days 8, 15, and 22.
as §5, with “test. […]” for “test.”

[5] = test system: rat chronic constriction injury (CCI) model; assay: Thermal hyperalgesia (paw withdrawal latency), systemically administered fluocinolone, rat CCI model; assay type: in vivo
Description: as §2, §3, §1

Structure (SMILES): CC1(C)O[C@@H]2C[C@H]3[C@@H]4C[C@H](F)C5=CC(=O)C=C[C@]5(C)[C@@]4(F)[C@@H](O)C[C@]3(C)[C@]2(C(=O)CO)O1 [Fluocinolone, fluocinolone acetonide]
- thermal paw withdrawal latency compared to PBS [1]: increases in the thermal paw withdrawal latency tests compared to PBS
- Von Frey Filament "Allodynia" Latencies as Percent of Baseline, Mean ([2]; 0.5 μg/kg every day, Day 8): 45.2% of Baseline
- Von Frey Filament "Allodynia" Latencies as Percent of Baseline, Mean ([2]; 0.5 μg/kg every day, Day 15): 47.1% of Baseline
- Von Frey Filament "Allodynia" Latencies as Percent of Baseline, Mean ([2]; 0.5 μg/kg every day, Day 22): 66.2% of Baseline
- Von Frey Filament "Allodynia" Latencies as Percent of Baseline, Mean ([2]; 5 μg/kg every day, Day 8): 54.8% of Baseline
- Von Frey Filament "Allodynia" Latencies as Percent of Baseline, Mean ([2]; 5 μg/kg every day, Day 15): 57.5% of Baseline
- Von Frey Filament "Allodynia" Latencies as Percent of Baseline, Mean ([2]; 5 μg/kg every day, Day 22): 55.2% of Baseline
- Von Frey Filament "Allodynia" Latencies as Percent of Baseline, Mean ([2]; 25 μg/kg every day, Day 8): 76.3% of Baseline
- Von Frey Filament "Allodynia" Latencies as Percent of Baseline, Mean ([2]; 25 μg/kg every day, Day 15): 68.9% of Baseline
- Von Frey Filament "Allodynia" Latencies as Percent of Baseline, Mean ([2]; 25 μg/kg every day, Day 22): 70.3% of Baseline
- mechanical allodynia compared with etanercept ([2]; 0.5, 5, 25 μg/kg/day, not statistically significant): tend to improve mechanical allodynia over etanercept; also recorded: does not reveal any significant differences
- mechanical allodynia compared with vehicle controls ([2]; 0.5, 5, or 25 μg/kg/day SC, overall ANOVA): significantly improves (overall ANOVA) mechanical allodynia
- body weight gain compared with vehicle controls ([3]; 25 μg/kg SC daily for 21 days): significant decrease in body weight gain
- body weight difference to vehicle controls ([3]; Day 5): ~10 g
- body weight difference to vehicle controls ([3]; by Day 22): ~50 g
- body weight gain ([3]; 0.5 or 5 μg/kg SC daily for 21 days): does not have any effect on body weight gain
- mechanical threshold (von Frey) [4]: increases in the mechanical threshold
- Thermal Paw Withdrawal Latencies as Percent Baseline, Mean ([5]; 0.5 μg/kg every day, Day 7): 71.6 Percent Baseline
- Thermal Paw Withdrawal Latencies as Percent Baseline, Mean ([5]; 0.5 μg/kg every day, Day 14): 70.8 Percent Baseline
- Thermal Paw Withdrawal Latencies as Percent Baseline, Mean ([5]; 0.5 μg/kg every day, Day 21): 63.1 Percent Baseline
- thermal latency, t-test compared to etanercept ([5]; 0.5 μg/kg, Day 7, p<0.05): significant increase in latency on Day 7
- thermal latency, t-test compared to etanercept ([5]; 0.5 μg/kg, Days 14 and 21, n.s.): not on Days 14 and 21
- thermal latencies compared with etanercept ([5]; 0.5 μg/kg/day, only statistically significant on Day 7): tends to improve thermal latencies over etanercept
- Thermal Paw Withdrawal Latencies as Percent Baseline, Mean ([5]; 5 μg/kg every day, Day 7): 79.7 Percent Baseline
- Thermal Paw Withdrawal Latencies as Percent Baseline, Mean ([5]; 5 μg/kg every day, Day 14): 83.8 Percent Baseline
- Thermal Paw Withdrawal Latencies as Percent Baseline, Mean ([5]; 5 μg/kg every day, Day 21): 80.2 Percent Baseline
- thermal latency, t-test compared to etanercept ([5]; 5 μg/kg, Days 7, 14, 21, p<0.05): significant increase in latency on all testing days
- Thermal Paw Withdrawal Latencies as Percent Baseline, Mean ([5]; 25 μg/kg every day, Day 7): 67.4 Percent Baseline
- Thermal Paw Withdrawal Latencies as Percent Baseline, Mean ([5]; 25 μg/kg every day, Day 14): 80.9 Percent Baseline
- Thermal Paw Withdrawal Latencies as Percent Baseline, Mean ([5]; 25 μg/kg every day, Day 21): 80.0 Percent Baseline
- thermal latency relative to vehicle controls ([5]; 0.5, 5 and 25 μg/kg/day SC, Days 7, 14, 21, p<0.05): increase in thermal latency relative to vehicle controls; also recorded: significantly increases the paw withdrawal latency period; also recorded: significant increase in thermal latency
- thermal hyperalgesia compared with etanercept ([5]; 5 and 25 μg/kg/day, all days tested, etanercept 3 mg/kg IP every 3 days, ANOVA p<0.05): improves thermal hyperalgesia significantly greater than etanercept
- thermal latency, 5 μg/kg dose compared with 25 μg/kg dose ([5]; Day 7, Fisher LSD, p<0.05): significantly more effective than 25 μg/kg dose
- thermal latency, 5 and 25 μg/kg doses compared with 0.5 μg/kg dose ([5]; Days 14 and 21, Fisher LSD, p<0.05): significantly more effective than the 0.5 μg/kg dose
